Results taken from ChEMBL document CHEMBL1201862, “PubChem BioAssay data set” (2004).
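Dose response: 5 concentrations. Exposure: 48 h. Format: 96-well plates. Endpoint: linear interpolation; highest concentration if not reached. Here, GI50 denotes the concentration required for 50% inhibition of growth.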 The source made the active and inactive calls. No stated cut-off is given here; in the data, active = GI50 up to about 1.1 µM and inactive = higher.

How the values were obtained:
Experiment in all cases: DTP human tumour cell line panel, 48 h
A549 = test system: A549
CAKI-1 = test system: CAKI-1
CCRF-CEM = test system: CCRF-CEM
COLO 205 = test system: COLO 205
HCT-116 = test system: HCT-116
HOP-62 = test system: HOP-62
IGROV-1 = test system: IGROV-1
KM12 = test system: KM12
MOLT-4 = test system: MOLT-4
NCI-H23 = test system: NCI-H23
OVCAR-4 = test system: OVCAR-4
RXF 393 = test system: RXF 393
SF-268 = test system: SF-268
SK-OV-3 = test system: SK-OV-3
SNB-75 = test system: SNB-75
U-251 = test system: U-251
NCI-H522 = test system: NCI-H522

Measured: GI50

COC(=O)C1CCC(=O)N1/C(C)=N/NC(=O)Nc1ccc(Cl)c(Cl)c1 (centres undefined)
inactive: A549 > 100 µM | CAKI-1 74.6 µM | CCRF-CEM > 100 µM | COLO 205 > 100 µM | HCT-116 > 100 µM | HOP-62 > 100 µM | IGROV-1 > 100 µM | KM12 98.4 µM | MOLT-4 99.1 µM | NCI-H23 > 100 µM | OVCAR-4 > 100 µM | RXF 393 > 100 µM | SF-268 69.5 µM | SK-OV-3 43.4 µM | SNB-75 65.3 µM | U-251 > 100 µM

COc1cc(/C=C/C2=C(C#N)C(=O)OC2(C)C)ccc1O
inactive: A549 > 100 µM | CAKI-1 > 100 µM | CCRF-CEM 13.3 µM | COLO 205 45.4 µM | HCT-116 37.9 µM | HOP-62 43.6 µM | IGROV-1 > 100 µM | KM12 30.9 µM | MOLT-4 > 100 µM | NCI-H23 > 100 µM | NCI-H522 16.7 µM | RXF 393 36.9 µM | SF-268 46.6 µM | SK-OV-3 > 100 µM | SNB-75 82.8 µM | U-251 17.4 µM

COC1C=CC(O)C(CO)O1 (centres undefined)
inactive: A549 > 100 µM | CCRF-CEM > 100 µM | HCT-116 > 100 µM | HOP-62 > 100 µM | IGROV-1 > 100 µM | KM12 > 100 µM | MOLT-4 > 100 µM | NCI-H23 > 100 µM | NCI-H522 > 100 µM | OVCAR-4 > 100 µM | RXF 393 > 100 µM | SK-OV-3 > 100 µM | SNB-75 > 100 µM | U-251 > 100 µM

CCCCOP1(=O)C=CC(Cl)=C(C)C1 (centres undefined)
inactive: A549 > 100 µM | CAKI-1 68.7 µM | CCRF-CEM 4.11 µM | COLO 205 33 µM | HCT-116 21.2 µM | HOP-62 71.3 µM | KM12 21.5 µM | MOLT-4 3.83 µM | NCI-H23 > 10 µM | NCI-H522 > 10 µM | OVCAR-4 25.2 µM | SF-268 28.1 µM | SNB-75 23.3 µM | U-251 > 10 µM

CC1C[C@]2(C[C@@H](C)C(=O)O2)OC2CC3(C)C4CCC5C(C)(C)OC(=O)CC[C@@]56C[C@@]46CC[C@]3(C)C12 (some centres undefined)
inactive: A549 > 100 µM | CAKI-1 > 100 µM | CCRF-CEM > 100 µM | COLO 205 > 100 µM | HCT-116 > 100 µM | IGROV-1 > 100 µM | KM12 > 100 µM | MOLT-4 > 100 µM | NCI-H23 > 100 µM | OVCAR-4 > 100 µM | RXF 393 > 100 µM | SF-268 > 100 µM | SNB-75 > 100 µM | U-251 > 100 µM

COc1ccc(C2C(C(=O)O)=C(COC(C)=O)Oc3cc4c(cc32)OCO4)cc1 (centres undefined)
inactive: A549 > 100 µM | CAKI-1 > 100 µM | CCRF-CEM > 100 µM | COLO 205 > 100 µM | HCT-116 > 100 µM | HOP-62 > 100 µM | IGROV-1 > 100 µM | MOLT-4 > 100 µM | NCI-H23 > 100 µM | OVCAR-4 > 100 µM | RXF 393 > 100 µM | SK-OV-3 > 100 µM | SNB-75 > 100 µM | U-251 > 100 µM

COC(=O)C1=COC2OC3/C(=C\c4ccc(O)c(OC)c4)C(=O)OC34C=CC1C24 (centres undefined)
inactive: A549 17.1 µM | CAKI-1 23.3 µM | CCRF-CEM 23.2 µM | COLO 205 20.1 µM | HCT-116 19 µM | HOP-62 24.5 µM | IGROV-1 24.4 µM | KM12 13.8 µM | MOLT-4 31.2 µM | NCI-H23 17.7 µM | NCI-H522 15.2 µM | OVCAR-4 17.6 µM | SF-268 19.5 µM | SK-OV-3 17 µM | SNB-75 11.7 µM | U-251 15.2 µM

N#C/C(=C\c1cccc(O)c1O)C(N)=O
inactive: A549 65.3 µM | CAKI-1 41.3 µM | CCRF-CEM 14.1 µM | COLO 205 21.5 µM | HCT-116 34.5 µM | HOP-62 68.9 µM | IGROV-1 93.1 µM | KM12 36.3 µM | MOLT-4 35.9 µM | NCI-H23 34.8 µM | NCI-H522 21 µM | OVCAR-4 62.4 µM | RXF 393 3.22 µM | SF-268 37.9 µM | SK-OV-3 28.8 µM | SNB-75 9.57 µM | U-251 61.4 µM

O=C1C2Cc3ccccc3CN2C(=O)N1CN1CCCCC1 (centres undefined)
inactive: A549 > 100 µM | CAKI-1 > 100 µM | CCRF-CEM 43.4 µM | COLO 205 > 100 µM | HOP-62 > 100 µM | IGROV-1 > 100 µM | KM12 > 100 µM | MOLT-4 > 100 µM | NCI-H23 > 100 µM | NCI-H522 > 100 µM | OVCAR-4 > 100 µM | SF-268 > 100 µM | U-251 > 100 µM

NC(=O)C1(c2ccccc2)Nc2ccccc2S1 (centres undefined)
inactive: A549 > 100 µM | CAKI-1 > 100 µM | CCRF-CEM > 100 µM | COLO 205 > 100 µM | HCT-116 > 100 µM | HOP-62 > 100 µM | KM12 > 100 µM | MOLT-4 > 100 µM | NCI-H23 > 100 µM | NCI-H522 > 100 µM | OVCAR-4 > 10 µM | RXF 393 > 100 µM | SF-268 > 100 µM | SK-OV-3 > 100 µM | U-251 > 100 µM
